Key:
caspase-3 = assay: Caspase-3 activation assay; type: cell-based, human; details: PC-3 cell line
Text: Caspase-3 is a key caspase that cleaves numerous cell proteins, resulting in apoptosis. […] They elevated the protein caspase-3 in the PC-3 cancer cell line by around seven to nine times compared to untreated control cells.
(§1) For more details, see Supplementary Materials. […]
4.2.3. Caspase-3 activation assay
Allow all reagents to reach room temperature before use. Gently mix all liquid reagents prior to use. Determine the number of 8-well strips needed for the assay. Insert these in the frame(s) for current use. Add 100 μl of the Standard Diluent Buffer to the zero standard wells. Well(s) reserved for chromogen blank should be left empty. Add 100 μl of standards and controls or diluted samples to the appropriate microtiter wells. The sample dilution chosen should be optimized for each experimental system. Tap gently on side of plate to mix. Cover wells with plate cover and incubate for 2 hours at room temperature. Thoroughly aspirate or decant solution from wells and discard the liquid, Wash wells 4 times. Pipette 100 μl of Caspase-3 (Active) Detection Antibod y solution into each well except the chromogen blank(s). Tap gently on the side of the plate to mix.
Cover plate with plate cover and incubate for 1 hour at room temperature. Thoroughly aspirate or decant solution from wells and discard the liquid, Wash well s 4 times. Add 100 μl Anti-Rabbit IgG HRP Working Solution to each well except the chromogen blank(s). Prepare the working dilution as described in Preparing IgG HRP. Cover wells with the plate cover and incubate for 30 minutes at room temperature. Thoroughly aspirate or decant solution from wells and discard the liquid. Wash wells 4 times. Add 100 μl of Stabilized Chromogen to each well. The liquid in the wells will begin to turn blue. Incubate for 30 minutes at room temperature and in the dark. The incuba tion time for chromogen substrate is often determined by the microtiter plate reader used. Many plate readers have the capacity to record a maximum optical density (O.D.) of 2.0. The O.D. values should be monitored, and the substrate reaction stopped befor e the O.D. of […]
the positive wells exceeds the limits of the instrument. The O.D. values at 450 nm can only be read after the Stop Solution has been added to each well. If using a reader that […]
100 μl of Stop Solution to each well. Tap side of plate gently to mix. The solution in the wells should change from blue to yellow. Read the absorbance of each well at 450 nm having blanked the plate reader against a chromogen blank composed of 100 μl each of Stabilized Chromogen and Stop Solution. Read the plate within 2 hours after adding the Stop Solution. Use a curve fitting software to generate the standard curve. A four-parameter algorithm provides the best standard curve fit. Read the concentrations for unknown samples and controls from the standard curve. Multiply value(s) obtained for sample(s) by the appropriate dilution factor to correct for the dilution in step 3. Samples producing signals greater than that of the highest standard should be diluted in Standard Diluent Buffer and reanalyzed. […]
A standard curve is […]
prepared from 7human Caspase-8 standard dilutions and human Caspase-8 concentration determined.

Bcl-2 = Bcl-2 inhibition assay; type: cell-based, human; details: PC-3 cell line; for down-regulation of anti-apoptotic Bcl-2 protein levels: compared to staurosporine
Description: as §1
4.2.6. Bcl-2 inhibition assay
Mix all reagents thoroughly without foaming before use. Wash the microwells twice with approximately 300 μL Wash Buffer per well with thorough aspiration of microwell contents between washes. Take caution not to scratch the surface of the microwells.
After the last wash, empty the wells and tap microwell strips on absorbent pad or paper towel to remove excess Wash Buffer. Use the microwell strips immediately after washing or place upside down on a wet absorbent paper for not longer than 15 minutes.
Add 100 μL of Sample Diluent in duplicate to all standard wells and to the blank wells. Prepare standard (1:2 dilution) in duplicate ranging from 32 ng/mL to 0.5 ng/mL. Add 100 μL of Sample Diluent, in duplicate, to the blank wells.
Add 80 μL of Sample Diluent, in duplicate, to the sample wells. Add 20 μL of each Sample, in duplicate, to the designated wells. Add 50 μL of diluted biotin-conjugate to all wells, including the blank wells. Cover with a plate cover and incubate at room temperature, on a microplate shaker at 100 rpm if available, for 2 hours. Remove plate cover and empty the wells. Wash microwell strips 3 times as described in step 2. Add 100 μL of diluted Streptavidin-HRP to all wells, including the blank wells. Cover with a plate cover and incubate at room temperature, on a microplate shaker at 100 rpm if available, for 1 hour. Remove plate cover and empty the wells. Wash microwell strips […]
3 times as described in step 2. Proceed to the next step. Pipette 100 μl of mixed TMB Substrate Solution to all wells, including the blanks. Incubate the microwell strips at room temperature (18° to 25°C) for about 15 minutes, if available on a rotator set at 100 rpm. Avoid direct exposure to intense light. The point, at which the substrate reaction is stopped, is often determined by the ELISA reader. Many ELISA readers record absorbance only up to 2.0 O.D. Therefore, the color development within individual microwells must be watched by the person running the assay and the substrate reaction stopped before positive wells are no longer properly detectable. Stop the enzyme reaction by quickly pipetting 100 μL of Stop Solution into each well, including the blank wells. It is important that the Stop Solution is spread quickly and uniformly throughout the microwells to completely inactivate the enzyme. Results must be read immediately after the Stop Solution is added or within one hour if the microwell strips are stored at 2 - 8°C in the dark. Read absorbance of each microwell on a spectrophotometer using 450 nm as the primary wavelength.
4.3. Statistical analysis
Computerized Prism 5 program was used to statistically analyzed data using one-way ANOVA test followed by Tukey’s as post ANOVA for multiple comparison at P ≤.05.
Data were presented as mean ± SEM.

SMILES | Caspase-3 Conc (caspase-3) [pg/mL] | caspase-3 protein level (caspase-3) [pg/mL] | Bcl-2 Conc (Bcl-2) [ng/mL] | down-regulation of anti-apoptotic Bcl-2 protein levels (Bcl-2) | Caspase-3 Fold Change (caspase-3; vs control) | Bcl-2 Fold Reduction (Bcl-2; vs control)
O=C(NN=Cc1ccc([N+](=O)[O-])cc1)c1ccc2[nH]c(-c3ccc(Cl)cc3)nc2c1 [Compound 4c, N′-(4-Nitrobenzylidene)-2-(4-chlorophenyl)-1H-benzimidazole-5-carbohydrazide] | 365 ± 12 | 365 ± 12 | 0.80 | equipotent down-regulation |  | 
O=C(NN=Cc1ccc(Cl)cc1)c1ccc2[nH]c(-c3ccc(Cl)cc3)nc2c1 [Compound 4e, N′-(4-Chlorobenzylidene)-2-(4-chlorophenyl)-1H-benzimidazole-5-carbohydrazide] | 470 ± 15 | 470 ± 15 | 0.75 | equipotent down-regulation | 9 | 4
